Data: patent US10160986B2, “Chemoenzymatic synthesis of heparin and heparan sulfate analogs” (The Regents of the University of California, priority 2011, dated 2018)

Experiments:
KfiA = assay: Donor substrate specificity of KfiA by HPLC (Example 1); assay type: biochemical, E. coli; conditions: acceptor GlcAα2AA 1 mM, UDP-sugar 1 mM, MnCl2 10 mM, pH 6.5, 37° C.
Description: (§1) pH profile by HPLC. Typical enzymatic assays were performed in a 10 μl reaction mixture containing a buffer (100 mM) with a pH in the range of 4.0-10.0, UDP-GlcNAc (1 mM), GlcAβ2AA (1 mM), MnCl2 (10 mM) and KfiA (9.0 μg) or PmHS2 (0.25 μg). Buffers used were: Na2HPO4/citric acid, pH 4.0; MES, pH 5.0-6.5; TrisHCl, pH 7.0-9.0; and CAPS, pH 10.0. Reactions were allowed to proceed for 30 min at 37° C. and were quenched by adding ice-cold 10% (v/v) acetonitrile to make 100-fold dilutions. The samples were then kept on ice until an aliquot of 8 μl was injected and analyzed by a Shimadzu LC-2010A system equipped with a membrane on-line degasser, a temperature control unit and a fluorescence detector. A reverse phase Premier C18 column (250 9 4.6 mm I.D., 5 μm particle size, Shimadzu) protected with a C18 guard column cartridge was used. The mobile phase was 25% (v/v) acetonitrile. The fluorescent compounds GlcAβ2AA and GlcNAcα1-4GlcAβ2AA were detected by excitation at 315 nm and emission at 400 nm.
(§2) Substrate specificity of KfiA and PmHS2. All reactions were carried out in duplicate at 37° C. in MES (100 mM, pH 6.5) containing an UDP-GlcNAc or its derivatives (1 mM), […] (1 mM), MnCl2 (10 mM) and KfiA ([…] PmHS2 (2.5×10^−2 μg μl^−1). At 30 min, 4 h or 16 h, aliquots of reaction mixture were withdrawn and were quenched by adding ice-cold 10% (v/v) acetonitrile to make 100-fold dilutions. The assays were analyzed by HPLC.

PmHS2 [1] = assay: Small-scale PmHS2 donor substrate test by TLC; assay type: biochemical, Pasteurella multocida; conditions: GlcAβ2AAMe 10 mM, donor 15 mM, MgCl2 10 mM, PmHS2 0.5 mg/mL, pH 7.5, 37° C., 12 hr
Description: Prior to applying the one-pot three-enzyme system shown in FIG. 16 to the preparative-scale synthesis of the disaccharides, UDP-GlcNAc and derivatives F17-1-F17-12 were tested as donor substrates for PmHS2 in small-scale reaction containing Tris-HCl buffer (100 mM, pH 7.5), GlcAβ2AAMe (10 mM), UDP-GlcNAc or a derivative (15 mM), MgCl2 (10 mM), and PmHS2 (0.5 mg/mL). The reactions were carried out at 37° C. for 12 hr and analyzed by thin layer chromatography (TLC).

His6-PmHS2 = assay: GlcNAcT donor substrate specificity of His6-PmHS2 (Example 12); assay type: biochemical, Pasteurella multocida; conditions: acceptor GlcAβ2AA 1 mM, UDP-sugar 1 mM, MnCl2 10 mM, PmHS2 1.1 μg μl^−1, 24 h, 37° C.
Description: (§3) PmHS2, KfiA, and related fusion proteins were expressed, purified, and characterized as described in Example 1. Reactions with UDP-sugars were carried out in duplicate at 37° C. in MES (100 mM, pH 6.5) containing UDP-GlcNAc or one of its derivatives (1 mM), GlcAβ2AA (1 mM), MnCl2 (10 mM) and KfiA (2.8 μg μl^−1) or PmHS2 (1.1 μg μl^−1) for 24 h. The reaction mixtures were stopped by adding ice-cold 10% (v/v) acetonitrile to make 100-fold dilutions and the mixtures were analyzed by HPLC as described for the pH profile.
(§4) Substrate specificity of the GlcNAcT activities of MBP-KfiA-his6 and his6-PmHS2. […] The reactions were easily analyzed by high performance liquid chromatography (HPLC) equipped with a fluorescence detector using an excitation wavelength of 315 nm and an emission wavelength of 400 nm to determine the ratio of the fluorescent disaccharide product formed and the fluorescent GlcAβ2AA acceptor.

PmHS2 [2] = assay: Donor substrate specificity of PmHS2 by HPLC (Example 1); assay type: biochemical, Pasteurella multocida; conditions: acceptor GlcAα2AA 1 mM, UDP-sugar 1 mM, MnCl2 10 mM, pH 6.5, 37° C.
Description: as §1, §2

[3] = test system: T1, MBP-KfiA-His6 (Escherichia coli); assay: GlcNAcT donor substrate specificity of MBP-KfiA-His6 (Example 12); assay type: biochemical, E. coli; conditions: acceptor GlcAβ2AA 1 mM, UDP-sugar 1 mM, MnCl2 10 mM, KfiA 2.8 μg μl^−1, 24 h, 37° C.
T1 construct: made in house; host or cells: E. coli BL21(DE3) co-expressing chaperone plasmid pGro7
Description: as §3, §4

SpGalK = molecular target: T2, SpGalK (Streptococcus pneumoniae serotype 4, UniProt Q97NZ6); assay: Kinase reaction monitored by CE (ATP to ADP), SpGalK; assay type: biochemical, Streptococcus pneumoniae TIGR4; conditions: monosaccharide 15 mM, ATP 18 mM, 37° C.
T2 construct: made in house
Description: (§5) Capillary electrophoresis (CE) and thin-layer chromatograph (TLC) assays for kinase reactions. […] These conditions were similar to those used for preparative-scale synthesis. After 1 hr, 4 hr, and 24 hr, an aliquot of 8 μL was withdrawn from each reaction mixture, boiled in a water bath for 5 min and stored at −20° C. until being analyzed by capillary electrophoresis (CE) and TLC. For TLC analysis, 0.5 μL of each sample was directly spotted on TLC plates, developed using suitable developing solvents, and stained with anisaldehyde sugar stain. For CE analysis, 1.5 μL of each sample was diluted into 30 μL and subjected to CE analysis as described above for pH profile studies.

NahK_ATCC55813 = NahK_ATCC55813 (Bifidobacterium longum subsp. longum, UniProt E8MF12, D7V/R348H); assay type: biochemical; set-up: made in house; host or cells: E. coli BL21(DE3); conditions: Glc, Gal, Man, ManNAc and derivatives; enzyme 15, 37° C. for 30 min (Table 3); listed as drawing 47
Description: (§6) Substrates specificity assays. GlcNAc, GalNAc, and their derivatives (1 mM) were used as substrates in the presence of ATP (1 mM) and MgCl2 (5 mM) in a Tris-HCl buffer (pH 8.0, 200 mM) to analyze the substrate specificity of NahKs. Two concentrations (0.75 μM or 15 μM) of each NahK were used and the reactions were allowed to proceed for 10 min (for 0.75 μM NahK) or 30 min (for 15 μM NahK) at 37° C. […] All other conditions were the same as for GlcNAc, GalNAc, and their derivatives.
(§7) Capillary electrophoresis (CE) assays. Based on the detection of ADP and ATP in the reaction mixture by a UV detector, a capillary electrophoresis-based method was developed to directly measure the formation of ADP and N-acetylhexosamine-1-phosphate from ATP and N-acetylhexosamine for characterizing the activities of NahKs.

NahK_ATCC15697 = NahK_ATCC15697 (Bifidobacterium longum, UniProt B7GN78); assay: Substrate specificity CE assay, NahK_ATCC15697; assay type: biochemical, Bifidobacterium infantis; conditions: Glc, Gal, Man, ManNAc and derivatives; enzyme 15, 37° C. for 30 min (Table 3); listed as drawing 47
Description: as §6, §7

EcGalK = molecular target: T3, EcGalK (Escherichia coli, UniProt P0A6T3); assay: Kinase reaction monitored by CE (ATP to ADP), EcGalK; assay type: biochemical; conditions: monosaccharide 15 mM, ATP 18 mM, 37° C.
T3 construct: made in house
Description: as §5

NahK = assay: Kinase reaction monitored by CE (ATP to ADP), NahK; assay type: biochemical, Bifidobacterium infantis; conditions: monosaccharide 15 mM, ATP 18 mM, 37° C.
Description: Capillary electrophoresis (CE) and thin-layer chromatograph (TLC) assays for kinase reactions. Kinase reactions were carried out at 37° C. in a total volume of 30 μL in Tris-HCl buffer (100 mM, pH 8.0) containing monosaccharide (15 mM), ATP (18 mM, 1.2 eq.), MgCl2 (10 mM), and a kinase (6 μg). These conditions were similar to those used for preparative-scale synthesis. After 1 hr, 4 hr, and 24 hr, an aliquot of 8 μL was withdrawn from each reaction mixture, boiled in a water bath for 5 min and stored at −20° C. until being analyzed by capillary electrophoresis (CE) and TLC. For TLC analysis, 0.5 μL of each sample was directly spotted on TLC plates, developed using suitable developing solvents, and stained with anisaldehyde sugar stain. For CE analysis, 1.5 μL of each sample was diluted into 30 μL and subjected to CE analysis as described above for pH profile studies.
General methods for compound purification and characterization. Chemicals were purchased and used without further purification. ^1H NMR and ^13C NMR spectra were recorded on a Varian Mercury 600 NMR spectrometer. High resolution electrospray ionization (ESI) mass spectra were obtained in negative mode using Thermo Electron LTQ-Orbitrap mass spectrometer. Silica gel 60 Å (Sorbent Technologies) was used for flash column chromatography. Thin-layer chromatography (TLC) was performed on silica gel plates 60 GF254 (Sorbent Technologies) using anisaldehyde sugar stain for detection. Gel filtration chromatography was performed with a column (100 cm×2.5 cm) packed with BioGel P-2 Fine resins (Bio-Rad). GlcN3 (T6-9) (Lau K, Thon, V, Yu H, Ding L, Chen Y, Muthana M M, Wong D, Huang R, and Chen X. Chem. Commun. 2010, 46, 6066-6068), ManF (T6-11) (Burkart M D, Zhang Z, Hung S-C, and Wong C-H. J. Am. Chem. Soc. 1997, 119, 11743-11746; Cao H, Li Y, Lau K, Muthana S, Yu H, Cheng J, Chokhawala H A, Sugiarto G, Zhang L, and Chen X. Org. Biomol. Chem. 2009, 7, 5137-5145), GalN3 (T6-4) and ManN3 (T6-14) (Yu H, Yu H, Karpel R, cand Chen X. Bioorg. Med. Chem. 2004, 12, 6427-6435) were previously synthesized using reported methods. NahK_ATCC15697, EcGalK, SpGalK, and PmPpA were overexpressed as described previously.

AtGlcAK = molecular target: T4, AtGlcAK (Arabidopsis thaliana, UniProt Q93ZC9, I297M); assay: AtGlcAK substrate specificity CE assay; assay type: biochemical; conditions: High enzyme Conc. (2.1 μg in 20 μL, 60 min, 37° C.)
T4 construct: made in house; host or cells: E. coli BL21 (DE3)
Description: Substrate specificity assays. […] The reactions were quenched and assayed with the same method as those for pH profile. All reactions were performed in duplicates.

## CC(=O)N[C@H]1[C@@H](OP(=O)(O)OP(=O)(O)OC[C@H]2O[C@@H](n3ccc(=O)[nH]c3=O)[C@H](O)[C@@H]2O)O[C@H](CO)[C@@H](O)[C@@H]1O [Compound F17-1, Uridine 5′-diphospho-2-acetamido-2-Deoxy-α-D-glucopyranoside]
KfiA
  donor substrate for KfiA: best substrate
PmHS2 [1]
  donor substrate for PmHS2: tolerable donor substrates
His6-PmHS2
  donor substrate for the α1-4GlcNAcT activity of His6-PmHS2: suitable donor substrates for His6-PmHS2
PmHS2 [2]
  donor substrate for PmHS2: best substrate
[3]
  donor substrate for MBP-KfiA-His6: can be used by MBP-KfiA-His6

## O=C(NC1C(OP(=O)(O)OP(=O)(O)OCC2OC(n3ccc(=O)[nH]c3=O)C(O)C2O)OC(CO)C(O)C1O)C(F)(F)F [Compound F17-2, Uridine 5′-diphospho-2-deoxy-2-trifluoroacetamido-α-D-glucopyranoside]
KfiA
  donor substrate for KfiA: can use
PmHS2 [1]
  donor substrate for PmHS2: tolerable donor substrates
PmHS2 [2]
  donor substrate for PmHS2: can use

## O=C(CO)N[C@H]1[C@@H](OP(=O)(O)OP(=O)(O)OC[C@H]2O[C@@H](n3ccc(=O)[nH]c3=O)[C@H](O)[C@@H]2O)O[C@H](CO)[C@@H](O)[C@@H]1O [Compound F17-3, Uridine 5′-diphospho-2-hydroxyacetamido-2-deoxy-α-D-glucopyranoside]
KfiA
  donor substrate for KfiA: can use
PmHS2 [1]
  donor substrate for PmHS2: tolerable donor substrates
PmHS2 [2]
  donor substrate for PmHS2: can use

## [N-]=[N+]=NCC(=O)N[C@H]1[C@@H](OP(=O)(O)OP(=O)(O)OC[C@H]2O[C@@H](n3ccc(=O)[nH]c3=O)[C@H](O)[C@@H]2O)O[C@H](CO)[C@@H](O)[C@@H]1O [Compound F17-4, Uridine 5′-diphospho-2-azidoxyacetamido-2-deoxy-α-D-glucopyranoside]
KfiA
  donor substrate for KfiA: can use
PmHS2 [1]
  donor substrate for PmHS2: tolerable donor substrates
PmHS2 [2]
  donor substrate for PmHS2: can use

## OCC1OC(O)C(O)[C@@H](O)[C@@H]1O (stereo partly shown) [Glc, glucose]
SpGalK; 1 hr
  ATP Conversion: 6.9%
SpGalK; 4 hr
  ATP Conversion: 13.8%
SpGalK; 24 hr
  ATP Conversion: 75.5%
NahK_ATCC55813
  Percentage Conversion: 4.7 ± 0.1%
NahK_ATCC15697
  Percentage Conversion: 9.1 ± 0.1%
EcGalK; 1 hr
  ATP Conversion: 8.2%
EcGalK; 4 hr
  ATP Conversion: 13.0%
EcGalK; 24 hr
  ATP Conversion: 66.4%
NahK; 4 hr
  ATP Conversion: 18.6%
NahK; 24 hr
  ATP Conversion: 82.2%
AtGlcAK
  Percentage conversion of ATP: <5%
